Laboratory results reported in EP4745153A1, “GLP-1, GIP AND GCG RECEPTOR […] USE THEREOF” (Jiangsu Hengrui Pharmaceuticals Co., Ltd., priority 2023, dated 2025).
Starred links: 1 amine or outer side, 2 acyl side, 3 side chain; linkers in the order of their positions; H or OH if unused. Non-standard residues stand in square brackets, D forms with d. Residues, ends and D or L forms follow the SMILES beside them. Groups on a side chain read outwards from the residue. ξ: configuration not given here. *: point of attachment. C20 diacid = O=C(O)CCCCCCCCCCCCCCCCCCC(=O)*; γGlu = O=C(O)[C@H](CCC(=O)[*:2])N[*:1]; αMeL = CC(C)C[C@](C)(N)C(=O)O; ξαMeL = CC(C)CC(C)(N)C(=O)O; AEEA = NCCOCCOCC(=O)O; Aib = CC(C)(N)C(=O)O

Legend:
[1] = biological target: T1, human GIPR (Homo sapiens, UniProt P48546); assay: cAMP HTRF agonist activity assay in CHO-K1 cells expressing GIPR; type: cell-based; conditions: read-out: Activity against human GIPR (EC50 nM); note: 5% FBS, 0.1% Casein
T1 construct: expressed in transfected cells; host or cells: CHO-K1 clonal cell line
T1 sequence (P48546 22-466): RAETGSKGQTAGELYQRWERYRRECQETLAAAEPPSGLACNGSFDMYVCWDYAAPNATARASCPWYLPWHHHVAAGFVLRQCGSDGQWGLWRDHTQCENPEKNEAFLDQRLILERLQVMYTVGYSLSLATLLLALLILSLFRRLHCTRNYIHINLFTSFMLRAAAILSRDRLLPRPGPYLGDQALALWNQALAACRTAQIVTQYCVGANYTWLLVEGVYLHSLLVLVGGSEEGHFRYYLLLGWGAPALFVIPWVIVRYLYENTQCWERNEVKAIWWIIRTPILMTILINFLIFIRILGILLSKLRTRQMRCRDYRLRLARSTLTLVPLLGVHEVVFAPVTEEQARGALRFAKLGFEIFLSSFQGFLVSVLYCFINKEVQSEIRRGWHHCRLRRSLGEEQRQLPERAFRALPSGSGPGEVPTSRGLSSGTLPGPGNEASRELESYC
Protocol: Functional activity was determined in CHO-K1 clonal cell lines expressing GIPR, GLP-1R, and GCGR. […] Each recipient cell (5000 cells/well) was added to an SV 96-well plate (Cisbio, 66PL96025) and incubated with the prepared polypeptide at 37°Cfor 30 min. The resulting increase in intracellular cAMP was quantitatively measured using the cAMP-GS dynamic HTRF assay kit (Cisbio, 62AM4PEJ). Briefly, the intracellular cAMP levels were determined by adding cAMP-d2 conjugate in cell lysis buffer, followed by the antibody anti-cAMP-Eu cryptate (also in cell lysis buffer).
Using the maximum response percentage vs. the added polypeptide concentration, the relative EC50 values were derived through nonlinear regression analysis and fitted to a four-parameter logarithmic equation. For specific data, refer to Tables 7-1 to 7-8 below. […]

[2] = Pharmacokinetics in mice after single intravenous injection; set-up: species or system C57 mice; conditions: male, C57, mouse, in vivo, iv
Protocol: Male C57 mice were used as test animals. The target compound was administered via a single intravenous injection, and the pharmacokinetic characteristics of the compound in C57 mice in vivo (plasma) were determined.
Male C57 mice, weighing approximately 25g, aged 4-6 weeks. After preparing the polypeptide compound solution using 1×PBS dissolving solution, the compound was administered intravenously at a dose of 200 nmol/kg, where each compound was administered to 3 animals. Blood samples of 60 µL were collected at 5 min, 15 min, 0.5 h, 1 h, 2 h, 4 h, 6 h, 24 h, 48 h and 72 h after the infusion was completed and transferred to centrifuge tubes containing EDTA-K2 anticoagulant. Whole blood samples were centrifuged at 4000 g for 5 min at 4°C. Plasma was separated and plasma samples were frozen and stored at -80 °C.
Sample pretreatment method: 30 µL of plasma samples was taken, and 120 µL of 0.1% formic acid in methanol containing 1 ng/mL internal standard verapamil was added. The mixture was vortexed for 5 min, and centrifuged at 10000 rpm for 10 min at low temperature. 70 µL of supernatant was taken, and 70 µL of water was added and mixed well. Analysis was performed by LC-MS instrument.
LC-MS analysis method: (1) chromatographic conditions: mobile phases A and B: 0.1% formic acid in water and 0.1% formic acid in acetonitrile, respectively; gradient elution mode; flow rate: 0.5 mL/min; injection volume: 10 µL; chromatographic column: nanomicro Unisil C18aq (4.6 mm × 150 mm, 5 µm); column temperature: 40°C. (2) Mass spectrometry conditions: For mass spectrometry, an electrospray ionization source (ESI), positive ion analysis mode, and multiple reaction monitoring (MRM) scanning mode were used.
For data processing, SCIEX OS (Version 2.1.6) software was used to quantify blood drug concentration data and PKSolver (Version 2.0) software was used to calculate pharmacokinetic parameters.

| SMILES | EC50 [1] [nM] | clearance [2] [mL/h/kg] | half-life [2] [min] |
| --- | --- | --- | --- |
| CC[C@H](C)[C@H](NC(=O)[C@H](CO)NC(=O)[C@H](CC(C)C)NC(=O)[C@H](CC(=O)O)NC(=O)[C@H](CO)NC(=O)[C@@H](NC(=O)[C@H](Cc1ccccc1)NC(=O)[C@@H](NC(=O)CNC(=O)[C@H](Cc1c[nH]cn1)NC(=O)C(C)(C)NC(=O)[C@@H](N)Cc1c[nH]cn1)[C@@H](C)O)[C@@H](C)O)C(=O)NC(C)(CC(C)C)C(=O)N[C@@H](CC(C)C)C(=O)N[C@@H](CCC(=O)O)C(=O)N[C@@H](CCCCNC(=O)COCCOCCNC(=O)COCCOCCNC(=O)CC[C@H](NC(=O)CCCCCCCCCCCCCCCCCCC(=O)O)C(=O)O)C(=O)N[C@@H](CCCCN)C(=O)N[C@@H](C)C(=O)N[C@@H](C)C(=O)N[C@@H](CCC(N)=O)C(=O)N[C@@H](CCC(=O)O)C(=O)N[C@@H](Cc1ccccc1)C(=O)N[C@H](C(=O)N[C@@H](CCC(=O)O)C(=O)N[C@@H](Cc1c[nH]c2ccccc12)C(=O)N[C@@H](CC(C)C)C(=O)N[C@@H](CC(C)C)C(=O)N[C@@H](C)C(=O)NCC(=O)NCC(=O)N1CCC[C@H]1C(=O)N[C@@H](CO)C(=O)N[C@@H](CO)C(=O)NCC(=O)N[C@@H](C)C(=O)N1CCC[C@H]1C(=O)N1CCC[C@H]1C(=O)N1CCC[C@H]1C(=O)N[C@@H](CO)C(N)=O)C(C)C (stereo partly shown) [Compound 0143] (H-H[Aib]HGTFTSDLSI[ξαMeL]LEK([AEEA-AEEA-γGlu-C20 diacid])KAAQEFVEWLLAGGPSSGAPPPS-NH2) | 0.004 | 2.82 | 822 |
| CC[C@H](C)[C@H](NC(=O)[C@H](CO)NC(=O)[C@H](Cc1ccc(O)cc1)NC(=O)[C@H](CC(=O)O)NC(=O)[C@H](CO)NC(=O)[C@@H](NC(=O)[C@H](Cc1ccccc1)NC(=O)[C@@H](NC(=O)CNC(=O)[C@H](CCC(N)=O)NC(=O)C(C)(C)NC(=O)[C@@H](N)Cc1c[nH]cn1)[C@@H](C)O)[C@@H](C)O)C(=O)N[C@@H](CC(C)C)C(=O)N[C@@H](CC(C)C)C(=O)N[C@@H](CCC(=O)O)C(=O)N[C@@H](CCCCNC(=O)COCCOCCNC(=O)COCCOCCNC(=O)CC[C@H](NC(=O)CCCCCCCCCCCCCCCCCCC(=O)O)C(=O)O)C(=O)N[C@@H](CCCCN)C(=O)N[C@@H](C)C(=O)N[C@@H](C)C(=O)NC(C)(C)C(=O)N[C@@H](CCC(=O)O)C(=O)N[C@@H](Cc1ccccc1)C(=O)N[C@H](C(=O)N[C@@H](CCC(=O)O)C(=O)N[C@@H](Cc1c[nH]c2ccccc12)C(=O)N[C@@H](CC(C)C)C(=O)N[C@@H](CC(C)C)C(=O)N[C@@H](C)C(=O)NCC(=O)NCC(=O)N1CCC[C@H]1C(=O)N[C@@H](CO)C(=O)N[C@@H](CO)C(=O)NCC(=O)N[C@@H](C)C(=O)N1CCC[C@H]1C(=O)N1CCC[C@H]1C(=O)N1CCC[C@H]1C(=O)N[C@@H](CO)C(N)=O)C(C)C [Compound 0156] | 0.019 |  |  |
| CC[C@H](C)[C@H](NC(=O)[C@H](CO)NC(=O)[C@H](CC(C)C)NC(=O)[C@H](CC(=O)O)NC(=O)[C@H](CO)NC(=O)[C@@H](NC(=O)[C@H](Cc1ccccc1)NC(=O)[C@@H](NC(=O)CNC(=O)[C@H](Cc1c[nH]cn1)NC(=O)C(C)(C)NC(=O)[C@@H](N)Cc1c[nH]cn1)[C@@H](C)O)[C@@H](C)O)C(=O)N[C@@](C)(CC(C)C)C(=O)N[C@@H](CC(C)C)C(=O)N[C@@H](CCC(=O)O)C(=O)N[C@@H](CCCCNC(=O)COCCOCCNC(=O)COCCOCCNC(=O)CC[C@H](NC(=O)CCCCCCCCCCCCCCCCCCC(=O)O)C(=O)O)C(=O)N[C@@H](CCCCN)C(=O)N[C@@H](C)C(=O)N[C@@H](C)C(=O)N[C@@H](CCC(N)=O)C(=O)N[C@@H](CCC(=O)O)C(=O)N[C@@H](Cc1ccccc1)C(=O)N[C@H](C(=O)N[C@@H](CCC(=O)O)C(=O)N[C@@H](Cc1c[nH]c2ccccc12)C(=O)N[C@@H](CC(C)C)C(=O)N[C@@H](CC(C)C)C(=O)N[C@@H](C)C(=O)N[C@H](CCC(=O)O)C(=O)NCC(=O)N1CCC[C@H]1C(=O)N[C@@H](CO)C(=O)N[C@@H](CO)C(=O)NCC(=O)N[C@@H](C)C(=O)N1CCC[C@H]1C(=O)N1CCC[C@H]1C(=O)N1CCC[C@H]1C(=O)N[C@@H](CO)C(N)=O)C(C)C [Compound 0142] (H-H[Aib]HGTFTSDLSI[αMeL]LEK([AEEA-AEEA-γGlu-C20 diacid])KAAQEFVEWLLA[dE]GPSSGAPPPS-NH2) | 0.007 | 5.52 | 630 |
| CC[C@H](C)[C@H](NC(=O)[C@H](CO)NC(=O)[C@H](CC(C)C)NC(=O)[C@H](CC(=O)O)NC(=O)[C@H](CO)NC(=O)[C@@H](NC(=O)[C@H](Cc1ccccc1)NC(=O)[C@@H](NC(=O)CNC(=O)[C@H](Cc1c[nH]cn1)NC(=O)C(C)(C)NC(=O)[C@@H](N)Cc1c[nH]cn1)[C@@H](C)O)[C@@H](C)O)C(=O)N[C@@H](CC(C)C)C(=O)N[C@@H](CC(C)C)C(=O)N[C@@H](CCC(=O)O)C(=O)N[C@@H](CCCCNC(=O)COCCOCCNC(=O)COCCOCCNC(=O)CC[C@H](NC(=O)CCCCCCCCCCCCCCCCCCC(=O)O)C(=O)O)C(=O)N[C@@H](CCC(N)=O)C(=O)N[C@@H](C)C(=O)N[C@@H](C)C(=O)NC1(C(=O)N[C@@H](CCC(=O)O)C(=O)N[C@@H](Cc2ccccc2)C(=O)N[C@H](C(=O)N[C@@H](CCC(=O)O)C(=O)N[C@@H](Cc2c[nH]c3ccccc23)C(=O)N[C@@H](CC(C)C)C(=O)N[C@@H](CC(C)C)C(=O)N[C@@H](C)C(=O)N[C@H](CCC(=O)O)C(=O)NCC(=O)N2CCC[C@H]2C(=O)N[C@@H](CO)C(=O)N[C@@H](CO)C(=O)NCC(=O)N[C@@H](C)C(=O)N2CCC[C@H]2C(=O)N2CCC[C@H]2C(=O)N2CCC[C@H]2C(=O)N[C@@H](CO)C(N)=O)C(C)C)CCC1 [Compound 0145] | 0.003 | 7.74 | 462 |
| CC[C@H](C)[C@H](NC(=O)[C@H](CO)NC(=O)[C@H](Cc1ccc(O)cc1)NC(=O)[C@H](CC(=O)O)NC(=O)[C@H](CO)NC(=O)[C@@H](NC(=O)[C@H](Cc1ccccc1)NC(=O)[C@@H](NC(=O)CNC(=O)[C@H](Cc1c[nH]cn1)NC(=O)C(C)(C)NC(=O)[C@@H](N)Cc1c[nH]cn1)[C@@H](C)O)[C@@H](C)O)C(=O)N[C@@](C)(CC(C)C)C(=O)N[C@@H](CC(C)C)C(=O)N[C@@H](CCC(=O)O)C(=O)N[C@@H](CCCCNC(=O)COCCOCCNC(=O)COCCOCCNC(=O)CC[C@H](NC(=O)CCCCCCCCCCCCCCCCCCC(=O)O)C(=O)O)C(=O)N[C@@H](CCCCN)C(=O)N[C@@H](C)C(=O)N[C@@H](C)C(=O)N[C@@H](CCC(N)=O)C(=O)N[C@@H](CCC(=O)O)C(=O)N[C@@H](Cc1ccccc1)C(=O)N[C@H](C(=O)N[C@@H](CCC(=O)O)C(=O)N[C@@H](Cc1c[nH]c2ccccc12)C(=O)N[C@@H](CC(C)C)C(=O)N[C@@H](CC(C)C)C(=O)N[C@@H](C)C(=O)N[C@H](CCC(=O)O)C(=O)NCC(=O)N1CCC[C@H]1C(=O)N[C@@H](CO)C(=O)N[C@@H](CO)C(=O)NCC(=O)N[C@@H](C)C(=O)N1CCC[C@H]1C(=O)N1CCC[C@H]1C(=O)N1CCC[C@H]1C(=O)N[C@@H](CO)C(N)=O)C(C)C [Compound 0139] | 0.007 | 4.86 | 714 |
